Measurements taken from US20140336267A1, “UTILIZATION OF THE FUNCTION OF RARE SUGAR AS PROMOTER FOR THE MIGRATION OF GLUCOKINASE FROM NUCLEUS TO CYTOPLASM” (NATIONAL UNIVERSITY CORPORATION KAGAWA UNIVERSITY, priority 2006, published 2014).
“Also recorded” adds a separate entry of the source.

Tests used:
glucokinase [1] = assay: Intracellular transfer of hepatic glucokinase with hormones and various compounds (rat hepatocyte primary culture); assay type: cell-based; conditions: 25 mM D-glucose MEM
Description: Wistar rats (male, aged 5 to 8 weeks) were used. A primary culture of the rat hepatocyte was incubated for a certain period of time in a 25 mM D-glucose-containing MEM culture medium supplemented with hormones and various compounds. The hepatocytes were fixed with 4% para-formaldehyde, and stained by a fluorescence antibody method using an anti-glucokinase antibody. A fluorescent image obtained with a co-focus laser microscope was analyzed with the NIH Image to calculate the fluorescence intensity in the nucleus and the cytoplasm, which were defined as the glucokinase level in the nucleus and the cytoplasm.

glucokinase [2] = target: T1, glucokinase (Rattus norvegicus, UniProt P17712); assay: Intracellular transfer of hepatic glucokinase with ketose (fluorescence antibody method, rat hepatocyte primary culture); assay type: cell-based
T1 construct: stained by a fluorescence antibody method using an anti-glucokinase antibody; endogenous in cells; host or cells: primary culture of hepatocytes from male Wistar rats
T1 sequence (P17712 1-465 isoform P17712-3): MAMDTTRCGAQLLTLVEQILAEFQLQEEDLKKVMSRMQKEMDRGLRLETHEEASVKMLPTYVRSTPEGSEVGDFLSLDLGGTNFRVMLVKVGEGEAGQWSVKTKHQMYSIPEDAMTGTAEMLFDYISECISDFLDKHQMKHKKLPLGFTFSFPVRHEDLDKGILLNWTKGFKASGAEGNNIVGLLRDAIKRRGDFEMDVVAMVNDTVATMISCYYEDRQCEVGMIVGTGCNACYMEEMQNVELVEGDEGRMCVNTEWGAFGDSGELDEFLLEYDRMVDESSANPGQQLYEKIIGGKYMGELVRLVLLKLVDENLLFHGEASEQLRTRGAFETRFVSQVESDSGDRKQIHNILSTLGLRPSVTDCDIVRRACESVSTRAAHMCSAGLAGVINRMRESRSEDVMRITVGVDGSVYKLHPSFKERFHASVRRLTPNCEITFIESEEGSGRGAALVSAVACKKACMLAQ
Description: Wistar rats (male, aged 5 to 8 weeks) were used. […] The hepatocytes were fixed with 4% para-formaldehyde, and stained by a fluorescence antibody method using an anti-glucokinase antibody. A fluorescent image obtained with a co-focus laser microscope was analyzed with the NIH Image to calculate the fluorescence intensity in the nucleus and the cytoplasm, which were defined as the glucokinase level in the nucleus and the cytoplasm. […] By the same method as described above, the glucokinase level in the intracellular nucleus and the cytoplasm was determined.

glucokinase [3] = target: T1, glucokinase; assay: Hepatic glucokinase transfer from nucleus to cytoplasm in Goto-Kakizaki rats (type 2 diabetes model); assay type: in vivo
Description: (§1) The action of suppressing blood glucose increase with D-fructose at a low concentration was examined. To Goto-Kakizaki rats as a model animal of type 2 diabetes mellitus, D-glucose to 2 g/[…] or D-glucose to 2 g/l kg body weight+D-fructose to 0.2 g/1 kg body weight was administered orally, to examine the modification of glucokinase transfer from the nucleus to the cytoplasm in hepatocytes and the change of the blood glucose levels in the portal vein and the tail vein.
(§2) 2 g/kg D-glucose is orally given to male Goto-Kakizaki rats starved overnight. Simultaneously, 0.2 g/kg D-psicose was orally given. Thirty minutes later and 60 minutes later, the rats were perfused and fixed with 4% para-formaldehyde under anesthesia, from which liver was immediately resected to prepare frozen sections. The distribution of hepatic glucokinase in nucleus and cytoplasm was analyzed with the fluorescence antibody method using an anti-glucokinase antibody. Simultaneously, blood was drawn out from the tail vein and the portal vein, to assay blood glucose level and insulin concentration. Herein, liver is divided in the portal vein region and the central vein region of liver. It has been known that the activity of glucokinase in the central vein region is higher by 1.3 fold to 1.5 fold than the activity thereof in the portal vein region. Therefore, the glucokinase distributions in the nucleus and the cytoplasm in the central vein region and the portal vein region were analyzed.

Goto-Kakizaki rats [4] = assay: Insulin concentrations in tail vein and portal vein under sugar loading, Goto-Kakizaki rats; assay type: in vivo, rat; conditions: 0.2 g/kg with 2 g/kg D-glucose oral, 30 minutes and 60 minutes, vs D-glucose alone
Description: as §2

glucokinase [5] = target: T1, glucokinase; assay: Hepatic glucokinase transfer from nucleus to cytoplasm after oral sugar given with D-glucose, Wistar rats (Example 3); assay type: in vivo; conditions: Wistar rats; 0.2 g/kg oral simultaneously with 2 g/kg D-glucose; 30 minutes later
Description: Male Wistar rats starved overnight were given 2 g/kg D-glucose orally. Simultaneously, 0.2 g/kg D-psicose, D-fructose or a mixture of D-psicose and D-fructose at 1:3 were given orally. Thirty minutes later, the rats were perfused and fixed with 4% para-formaldehyde under anesthesia, from which liver was immediately resected to prepare frozen sections. The distribution of glucokinase in the nucleus and the cytoplasm was analyzed with the fluorescence antibody method using an anti-glucokinase antibody. Simultaneously, blood was drawn out from the tail vein and the portal vein, to assay blood glucose levels.

Goto-Kakizaki rats [6] = assay: Blood glucose levels in tail vein and portal vein after sugar loading, Goto-Kakizaki rats; assay type: in vivo, rat
Description: as §1, §2

glucokinase [7] = target: T1, glucokinase; assay: Hepatic glucokinase transfer from nucleus to cytoplasm after oral sugar alone, Wistar rats (Example 2); assay type: in vivo; conditions: Wistar rats starved overnight; 2 g/kg oral; 30 minutes later
Description: Thirty minutes later, the rats were subjected to perfusion and fixing with 4% para-formaldehyde under anesthesia, from which liver was immediately resected to prepare frozen sections. The distribution of glucokinase in nucleus and cytoplasm was analyzed with the fluorescence antibody method using an anti-glucokinase antibody. Simultaneously, blood was drawn out from the tail vein and the portal vein, to assay blood glucose levels.

hepatocytes = assay: Lactic acid generation in hepatocytes; assay type: cell-based, rat; conditions: each D-ketose added at 0.5 mM; MEM with 15 mM glucose; DMSO control
Description: […] As a control, DMSO was added.
(§3) Cultured hepatocytes were incubated in an MEM culture medium containing 5 mM or 25 mM D-glucose with an action of promoting glucokinase transfer from nucleus to cytoplasm. Glucokinase transfer from nucleus to cytoplasm, glycogen synthesis and lactic acid generation were increased. Via glucose, glucokinase transfer from nucleus to cytoplasm occurs, which raises cytoplasmic glucokinase activity to possibly promote the sugar metabolism in liver. […] (FIGS. 4, 6, 7 and 8)

[8] = system: primary culture of rat hepatocytes; assay: Glucose phosphorylation rate in cultured hepatocytes; assay type: cell-based
Description: Subsequently, the primary culture was incubated at various D-fructose concentrations in the presence of 25 mM D-glucose. […] The results agreed with the results reported so far.

glucokinase [9] = target: T1, glucokinase; assay: Glucokinase distribution in primary hepatocytes with D-glucose and D-fructose (fluorescence antibody method); assay type: cell-based; conditions: 0.5 mM D-fructose present vs absent; 5 mM or 25 mM D-glucose; 37° C. 30 minutes
Description: In the presence of 5 mM D-glucose, glucokinase mainly existed in the cell nucleus.
as §3

[10] = ketose added, MEM culture medium with 5 mM or 15 mM D-glucose
[11] = 0.2 g/kg with 2 g/kg D-glucose oral, compared with D-glucose alone, portal and central vein regions
[12] = 0.2 g/kg with 2 g/kg D-glucose oral, 30 minutes and 60 minutes, vs D-glucose alone

For “glucagon: hormone that transfers glucokinase from cytoplasm to nucleus”, which cytoplasmic glucokinase (glucokinase [1]; hormone or compound alone) is on record?
The cytoplasmic glucokinase was “cytoplasmic glucokinase activity was reduced”.

For `CCCC(=O)Nc1ncnc2c1ncn2[C@@H]1O[C@@H]2COP(=O)(O)O[C@H]2[C@H]1OC(=O)CCC` [Bt2cAMP], which cytoplasmic glucokinase (glucokinase [1]; hormone or compound alone) is on record?
Its cytoplasmic glucokinase is “cytoplasmic glucokinase activity was reduced”.

Which “glucokinase transfer from nucleus to cytoplasm” value (glucokinase [2]; at any of the ketose concentrations) does the source give for `O=C(CO)[C@H](O)[C@@H](O)[C@H](O)CO` [D-sorbose] here?
The value was “did not influence glucokinase transfer; also recorded: hardly influenced such glucokinase transfer”.

Which “glucokinase transfer from nucleus to cytoplasm” value (glucokinase [2]; [10]) does the source give for `O=C(CO)[C@H](O)[C@H](O)[C@@H](O)CO` [L-tagatose] here?
The value was “never influenced the glucokinase transfer”.

How did the cytoplasmic glucokinase (glucokinase [1]; compound in the presence of insulin) turn out when `COc1cccc(-c2cc(=O)c3ccccc3o2)c1N` [PD-98059] was run?
The cytoplasmic glucokinase was “such change could not be observed”.

For `O=C(CO)[C@@H](O)[C@@H](O)[C@H](O)CO` [D-tagatose], which “glucokinase transfer from nucleus to cytoplasm” value (glucokinase [2]; ketose added up to 1 mM, any of the D-glucose concentrations) is on record?
Its value is “glucokinase transferred from nucleus to cytoplasm”.

What about the “glucokinase transfer from nucleus to cytoplasm” value (glucokinase [2]; [10]) of the same compound?
The value was “glucokinase transferred from nucleus to cytoplasm”.

And the “glucokinase transfer from nucleus to cytoplasm” value (glucokinase [2]; ketose concentration 10 mM or more)?
Its value is “no change of the glucokinase transfer was observed; also recorded: no glucokinase transfer from nucleus to cytoplasm was observed”.

With `O=C(CO)[C@H](O)[C@H](O)[C@H](O)CO` [D-psicose] as the compound, how does the “cytoplasmic glucokinase fluorescence (liver)” value (glucokinase [3]; [11]) read?
The value was “increased the cytoplasmic fluorescence”.

And the “nuclear glucokinase fluorescence (liver)” value (glucokinase [3]; [11])?
The value was “significantly reduced the nuclear fluorescence”.

What about the “cytoplasmic glucokinase level (fluorescence intensity analysis)” value (glucokinase [3]; simultaneous administration with D-glucose vs D-glucose alone, central vein and portal vein regions) of the same compound?
The value was “further increased the cytoplasmic glucokinase level”.

What about the “insulin concentration in the portal vein” value (Goto-Kakizaki rats [4]) of the same compound?
The value was “significantly lower values”.

And the “insulin concentration in the tail vein” value (Goto-Kakizaki rats [4])?
The value was “significantly lower values”.

And the “glucokinase transfer from nucleus to cytoplasm” value (glucokinase [2]; even at a high ketose concentration)?
Its value is “exerted an action to promote glucokinase transfer from nucleus to cytoplasm”.

And the “glucokinase transfer from nucleus to cytoplasm” value (glucokinase [2]; [10])?
Its value is “glucokinase transferred from nucleus to cytoplasm”.

What about the “glucokinase transfer from the nucleus to the cytoplasm in hepatocytes” value (“glucokinase transfer … in hepatocytes” for short) (glucokinase [5]) of the same compound?
The value was “glucokinase was transferred to the cytoplasm apparently but more weakly than with D-fructose”.

And the “glucose concentration in the portal vein” value (Goto-Kakizaki rats [6]; [12])?
The value was “significantly lower values”.

What about the “glucose concentration in the tail vein” value (Goto-Kakizaki rats [6]; [12]) of the same compound?
Its value is “significantly lower values”.

And the “glucokinase transfer … in hepatocytes” value (glucokinase [7])?
Its value is “glucokinase transfer from the nucleus to the cytoplasm could be observed”.

What about the lactic acid generation (hepatocytes) of the same compound?
Its lactic acid generation is “lactic acid generation was increased”.

How did the cytoplasmic glucokinase (glucokinase [1]; hormone or compound alone) turn out when `CC(C)Cn1c(=O)n(C)c(=O)c2[nH]cnc21` [IBMX] was run?
The cytoplasmic glucokinase was “cytoplasmic glucokinase activity was reduced”.

Which “glucokinase transfer from nucleus to cytoplasm” value (glucokinase [2]; [10]) does the source give for `O=C(CO)[C@@H](O)[C@H](O)[C@@H](O)CO` [L-sorbose] here?
The value was “glucokinase transferred from nucleus to cytoplasm as the L-sorbose concentration was raised”.

Which “glucokinase transfer from nucleus to cytoplasm” value (glucokinase [2]; [10]) does the source give for `O=C(CO)[C@@H](O)[C@@H](O)[C@@H](O)CO` [L-psicose] here?
Its value is “glucokinase transferred from nucleus to cytoplasm”.

With `CCCCCCOC(=O)[C@]1(O)C[C@@H]2O[C@@]1(C)n1c3ccccc3c3c4c(c5c6ccccc6n2c5c31)C(=O)NC4` [KT-5720] as the compound, how does the cytoplasmic glucokinase (glucokinase [1]; compound in the presence of glucagon) read?
Its cytoplasmic glucokinase is “Almost no reduction of cytoplasmic glucokinase with glucagon was observed any more”.

“insulin: hormone that transfers glucokinase from nucleus to cytoplasm” was tested. Which cytoplasmic glucokinase (glucokinase [1]; hormone or compound alone) did it give?
The cytoplasmic glucokinase was “increase of cytoplasmic glucokinase”.

What does the source list for `O=C(CO)[C@H](O)[C@@H](O)[C@@H](O)CO` [L-fructose]?
glucokinase transfer from nucleus to cytoplasm (glucokinase [2]; ketose added at 20 mM or more, 5 mM or 15 mM D-glucose): glucokinase transfer from nucleus to cytoplasm was gradually reduced; glucokinase transfer from nucleus to cytoplasm (glucokinase [2]; [10]): glucokinase transferred from nucleus to cytoplasm

`O=C(CO)[C@@H](O)[C@H](O)[C@H](O)CO` [D-fructose] was tested. Which glucose phosphorylation ([8]; 0.5 mM D-fructose present vs absent, various glucose concentrations) did it give?
The glucose phosphorylation was “enhanced glucose phosphorylation in the hepatocytes”.

What about the glucose phosphorylation ([8]; above 0.5 mM D-fructose, 25 mM D-glucose) of the same compound?
The glucose phosphorylation was “glucose phosphorylation was reduced”.

And the glucose phosphorylation ([8]; up to 0.5 mM D-fructose, 25 mM D-glucose)?
Its glucose phosphorylation is “glucose phosphorylation was enhanced as the D-fructose concentration was raised”.

And the “glucokinase transfer … in hepatocytes” value (glucokinase [3]; D-glucose 2 g/kg + D-fructose 0.2 g/kg oral, compared with D-glucose alone)?
The value was “significantly increased”.

And the “glucokinase transfer from nucleus to cytoplasm” value (glucokinase [2]; ketose added at 1 mM or more, 5 mM or 15 mM D-glucose)?
The value was “glucokinase transfer from nucleus to cytoplasm was gradually reduced”.

What about the “glucokinase transfer from nucleus to cytoplasm” value (glucokinase [2]; [10]) of the same compound?
Its value is “glucokinase transferred from nucleus to cytoplasm”.

And the “glucokinase transfer … in hepatocytes” value (glucokinase [5])?
The value was “glucokinase was mostly transferred to the cytoplasm”.

And the “glucokinase transfer from the nucleus to the cytoplasm” value (glucokinase [9])?
Its value is “the glucokinase transfer from the nucleus to the cytoplasm increased”.

What about the “blood glucose level in the portal vein” value (Goto-Kakizaki rats [6]; additional supplement of D-fructose compared with D-glucose alone) of the same compound?
Its value is “suppressed significantly”.

What about the “blood glucose level in the portal vein” value (Goto-Kakizaki rats [6]; effect of D-fructose loading added to D-glucose) of the same compound?
Its value is “No difference was observed”.

And the “glucokinase transfer … in hepatocytes” value (glucokinase [7])?
The value was “a higher level of the transfer was observed than with D-psicose”.

What about the lactic acid generation (hepatocytes) of the same compound?
Its lactic acid generation is “lactic acid generation was increased”.
